Where two headings read alike, the source gives them in different places.
Molecular target: LC3B (Homo sapiens, UniProt Q9GZQ8)
Settings: LC3B:ligand molar ratio 1:2

SMILES: Cc1ccc(C(=O)N(CCCN)[C@@H](c2nc3cc(Cl)ccc3c(=O)n2Cc2ccccc2)C(C)C)cc1 [compound 3, (R)-N-(3-aminopropyl)-N-(1-(3-benzyl-7-chloro-4-oxo-3,4-dihydroquinazolin-2-yl)−2-methylpropyl)−4-methylbenzamide]
- CSP (LC3B residue A75): 0.00171 ppm
- CSP (LC3B residue A78): 0.000906 ppm
- CSP (LC3B residue A114): 0.00141 ppm
- CSP (LC3B residue D19): 0.000707 ppm
- CSP (LC3B residue D48): 0.010 ppm
- CSP (LC3B residue D56): 0.00434 ppm
- CSP (LC3B residue D104): 0.002 ppm
- CSP (LC3B residue D106): 0.005 ppm
- CSP (LC3B residue E14): 0.00152 ppm
- CSP (LC3B residue E18): 0.003 ppm
- CSP (LC3B residue E25): 0.00212 ppm
- CSP (LC3B residue E36): 0.00158 ppm
- CSP (LC3B residue E41): 0.0011 ppm
- CSP (LC3B residue E62): 0.00213 ppm
- CSP (LC3B residue E97): 0.005 ppm
- CSP (LC3B residue E100): 0.004 ppm
- CSP (LC3B residue E102): 0.000721 ppm
- CSP (LC3B residue E105): 0.00232 ppm
- CSP (LC3B residue E117): 0.00224 ppm
- CSP (LC3B residue F07): 0.00141 ppm
- CSP (LC3B residue F13): 0.000721 ppm
- CSP (LC3B residue F52): 0.011 ppm
- CSP (LC3B residue F108): 0.006 ppm
- CSP (LC3B residue F119): 0.00255 ppm
- CSP (LC3B residue G40, estimated): 0.002 ppm
- CSP (LC3B residue G107): 0.002 ppm
- CSP (LC3B residue H27): 0.00453 ppm
- CSP (LC3B residue H57): 0.00237 ppm
- CSP (LC3B residue I23): 0.00158 ppm
- CSP (LC3B residue I31): 0.00281 ppm
- CSP (LC3B residue I34): 0.00571 ppm
- CSP (LC3B residue I35): 0.00158 ppm
- CSP (LC3B residue I64): 0.00474 ppm
- CSP (LC3B residue I66): 0.000721 ppm
- CSP (LC3B residue I67): 0.003 ppm
- CSP (LC3B residue K08): 0.00364 ppm
- CSP (LC3B residue K30): 0.000762 ppm
- CSP (LC3B residue K39): 0.00212 ppm
- CSP (LC3B residue K42): 0.00255 ppm
- CSP (LC3B residue K49): 0.00665 ppm
- CSP (LC3B residue K51): 0.00356 ppm
- CSP (LC3B residue K65): 0.00216 ppm
- CSP (LC3B residue K103): 0.00165 ppm
- CSP (LC3B residue L22): 0.002 ppm
- CSP (LC3B residue L44): 0.006 ppm
- CSP (LC3B residue L47): 0.009 ppm
- CSP (LC3B residue L53): 0.007 ppm
- CSP (LC3B residue L63): 0.004 ppm
- CSP (LC3B residue L71): 0.000566 ppm
- CSP (LC3B residue L73): 0.000849 ppm
- CSP (LC3B residue L109): 0.00144 ppm
- CSP (LC3B residue M01, estimated): 0.002 ppm
- CSP (LC3B residue M60): 0.00216 ppm
- CSP (LC3B residue M111): 0.00255 ppm
- CSP (LC3B residue N59): 0.009 ppm
- CSP (LC3B residue N74): 0.00173 ppm
- CSP (LC3B residue N76): 0.00171 ppm
- CSP (LC3B residue P02, estimated): 0.002 ppm
- CSP (LC3B residue P28, estimated): 0.005 ppm
- CSP (LC3B residue P32, estimated): 0.003 ppm
- CSP (LC3B residue P45, estimated): 0.005 ppm
- CSP (LC3B residue P55, estimated): 0.006 ppm
- CSP (LC3B residue Q09): 0.00173 ppm
- CSP (LC3B residue Q15): 0.00158 ppm
- CSP (LC3B residue Q26): 0.003 ppm
- CSP (LC3B residue Q43): 0.00158 ppm
- CSP (LC3B residue Q72): 0.00243 ppm
- CSP (LC3B residue Q77): 0.0011 ppm
- CSP (LC3B residue Q116): 0.00181 ppm
- CSP (LC3B residue R10): 0.00165 ppm
- CSP (LC3B residue R11): 0.0024 ppm
- CSP (LC3B residue R16): 0.00181 ppm
- CSP (LC3B residue R21): 0.002 ppm
- CSP (LC3B residue R24): 0.000424 ppm
- CSP (LC3B residue R37): 0.00181 ppm
- CSP (LC3B residue R68): 0.00643 ppm
- CSP (LC3B residue R69): 0.00362 ppm
- CSP (LC3B residue R70): 0.00566 ppm
- CSP (LC3B residue S03, estimated): 0.002 ppm
- CSP (LC3B residue S61): 0.00376 ppm
- CSP (LC3B residue S96): 0.004 ppm
- CSP (LC3B residue S101): 0.00148 ppm
- CSP (LC3B residue S115): 0.00122 ppm
- CSP (LC3B residue T06): 0.00255 ppm
- CSP (LC3B residue T12): 0.006 ppm
- CSP (LC3B residue T29, estimated): 0.002 ppm
- CSP (LC3B residue T50): 0.008 ppm
- CSP (LC3B residue T118): 0.00152 ppm
- CSP (LC3B residue V17): 0.0011 ppm
- CSP (LC3B residue V20): 0.00281 ppm
- CSP (LC3B residue V33): 0.00472 ppm
- CSP (LC3B residue V46): 0.00449 ppm
- CSP (LC3B residue V54): 0.009 ppm
- CSP (LC3B residue V58): 0.00542 ppm
- CSP (LC3B residue V98): 0.00173 ppm
- CSP (LC3B residue V112): 0.00638 ppm
- CSP (LC3B residue Y38): 0.00165 ppm
- CSP (LC3B residue Y99): 0.00144 ppm
- CSP (LC3B residue Y110): 0.00214 ppm
- CSP (LC3B residue Y113): 0.00232 ppm

From PMC11589570, “Critical assessment of LC3/GABARAP ligands used for degrader development and ligandability of LC3/GABARAP binding pockets” (Nature Communications, 2024)
